Reference: patent US20070128217A1 (priority 2003, published 2007)

Key:
[1] = tested on: control sera (pooled serum of ten healthy LUMC hospital workers; commercial negative donor pooled serum from the Dutch bloodbank); type: binding, human; parameters: Binding of Control serum LUMC to linear peptides / Binding of Control serum Blood-bank to linear peptides / Binding of Control serum LUMC to looped peptides / Binding of Control Serum Blood-Bank to Looped peptides / Binding of Control serum LUMC to linear peptides of the protein M of SARS-CoV Urbani / Binding of Control serum Blood-bank to linear peptides of the protein M of SARS-CoV Urbani / Binding of Control serum LUMC to looped peptides of the protein M of SARS-CoV Urbani / Binding of Control Serum Blood-Bank to Looped peptides of the protein M of SARS-CoV Urbani: unit not given here
[2] = tested on: antibodies in sera from SARS patients (sera 1a, 1b, 2, 6, 37, 62, London, SARS-yellow, SARS-green); type: binding, human; parameters: Binding of serum 6 to linear peptides of protein X1 of SARS-CoV Urbani / Binding of serum 37 to linear peptides of protein X1 of SARS-CoV Urbani / Binding of serum 6 to looped/cyclic peptide (PEPSCAN-ELISA) / Binding of serum 37 to looped/cyclic peptide (PEPSCAN-ELISA) / Binding of serum 37 to looped/cyclic peptides of protein X1 of SARS-CoV Urbani / Binding of serum 6 to linear peptides of protein X2 / Binding of serum 37 to linear peptides of protein X2 / Binding of serum 37 to looped/cyclic peptides of protein X2 of SARS-CoV Urbani / Binding of serum 6 to linear peptides of protein M of SARS-CoV Urbani / Binding of serum 37 to linear peptides of protein M of SARS-CoV Urbani / Binding of serum 6 to looped/cyclic peptides of protein M of SARS-CoV Urbani / Binding of serum 37 to looped/cyclic peptides of protein M of SARS-CoV Urbani / Binding of serum 6 to linear peptides of protein X3 of SARS-CoV Urbani / Binding of serum 37 to linear peptides of protein X3 of SARS-CoV Urbani / Binding of serum 37 to looped/cyclic peptides of protein X3 of SARS-CoV Urbani / Binding of serum 6 to linear peptides of protein X4 of SARS-CoV Urbani / Binding of serum 37 to linear peptides of protein X4 of SARS-CoV Urbani / Binding of serum 37 to looped/cyclic peptides of protein X4 of SARS-CoV Urbani / Binding of serum 6 to linear peptides of protein X5 of SARS-CoV Urbani / Binding of serum 37 to linear peptides of protein X5 of SARS-CoV Urbani / Binding of serum 37 to looped/cyclic peptides of protein X5 of SARS-CoV Urbani / Binding of serum 6 to linear peptides of protein N of SARS-CoV Urbani / Binding of serum 37 to linear peptides of protein N of SARS-CoV Urbani / Binding of serum 6 to linear peptide (PEPSCAN-ELISA) / Binding of serum 1a to looped/cyclic peptides of protein N of SARS-CoV Urbani / Binding of serum 1b to looped/cyclic peptides of protein N of SARS-CoV Urbani / Binding of serum 2 to looped/cyclic peptides of protein N of SARS-CoV Urbani / Binding of serum 6 to looped/cyclic peptides of protein N of SARS-CoV Urbani / Binding of serum 37 to looped/cyclic peptides of protein N of SARS-CoV Urbani / Binding of serum 62 to looped/cyclic peptides of protein N of SARS-CoV Urbani / Binding of serum London to looped/cyclic peptides of protein N of SARS-CoV Urbani / Binding of serum SARS-green to looped/cyclic peptides of protein N of SARS-CoV Urbani: unit not given here
[3] = tested on: rabbit serum obtained by immunizing a rabbit with the SARS-CoV strain Frankfurt 1; type: binding; parameters: Binding of a rabbit serum to linear peptides / Binding of a rabbit serum to looped peptides / Rabbit serum linear peptides / Rabbit serum looped peptides / Binding of a rabbit serum to linear peptides of protein N of SARS-CoV Urbani (Rabbit serum linear peptides) / Binding of a rabbit serum to looped/cyclic peptides of protein N of SARS-CoV Urbani (Rabbit serum looped peptides): unit not given here

EVYYQLESTQITTDT
Binding of Control Serum Blood-Bank to Looped peptides [1]: 0.5 | Binding of Control serum Blood-bank to linear peptides [1]: 0.4 | Binding of Control serum LUMC to linear peptides [1]: 0.4 | Binding of Control serum LUMC to looped peptides [1]: 0.4 | Binding of serum 1a to linear peptides of protein X1 of SARS-CoV Urbani [2]: 0.7 | Binding of serum 1a to looped/cyclic peptides of protein X1 of SARS-CoV Urbani [2]: 0.5 | Binding of serum 1b to linear peptides of protein X1 of SARS-CoV Urbani [2]: 0.6 | Binding of serum 1b to looped/cyclic peptides of protein X1 of SARS-CoV Urbani [2]: 0.4 | Binding of serum 2 to linear peptides of protein X1 of SARS-CoV Urbani [2]: 0.4 | Binding of serum 2 to looped/cyclic peptides of protein X1 of SARS-CoV Urbani [2]: 0.1 | Binding of serum 6 to linear peptides of protein X1 of SARS-CoV Urbani [2]: 0.5 | Binding of serum 6 to looped/cyclic peptides of protein X1 of SARS-CoV Urbani [2]: 0.2 | Binding of serum 37 to linear peptides of protein X1 of SARS-CoV Urbani [2]: 0.7 | Binding of serum 37 to looped/cyclic peptides of protein X1 of SARS-CoV Urbani [2]: 0.5 | Binding of serum 62 to linear peptides of protein X1 of SARS-CoV Urbani [2]: 0.4 | Binding of serum 62 to looped/cyclic peptides of protein X1 of SARS-CoV Urbani [2]: 0.5 | Binding of serum London to linear peptides of protein X1 of SARS-CoV Urbani [2]: 0.3 | Binding of serum London to looped/cyclic peptides of protein X1 of SARS-CoV Urbani [2]: 0.2 | Binding of serum SARS-green to linear peptides of protein X1 of SARS-CoV Urbani [2]: 0.2 | Binding of serum SARS-green to looped/cyclic peptides of protein X1 of SARS-CoV Urbani [2]: 0.3 | Binding of serum SARS-yellow to linear peptides of protein X1 of SARS-CoV Urbani [2]: 0.3 | Binding of serum SARS-yellow to looped/cyclic peptides of protein X1 of SARS-CoV Urbani [2]: 0.3 | Binding of a rabbit serum to linear peptides [3]: 0.1 | Binding of a rabbit serum to looped peptides [3]: 0.4

LWPVTLACFVLAAVY
Binding of Control Serum Blood-Bank to Looped peptides of the protein M of SARS-CoV Urbani [1]: 0.6 | Binding of Control serum Blood-bank to linear peptides of the protein M of SARS-CoV Urbani [1]: 0.6 | Binding of Control serum LUMC to linear peptides of the protein M of SARS-CoV Urbani [1]: 0.4 | Binding of Control serum LUMC to looped peptides of the protein M of SARS-CoV Urbani [1]: 0.7 | Binding of serum 1a to linear peptides of protein M of SARS-CoV Urbani [2]: 0.7 | Binding of serum 1a to looped/cyclic peptides of protein M of SARS-CoV Urbani [2]: 0.7 | Binding of serum 1b to linear peptides of protein M of SARS-CoV Urbani [2]: 0.6 | Binding of serum 1b to looped/cyclic peptides of protein M of SARS-CoV Urbani [2]: 0.5 | Binding of serum 2 to linear peptides of protein M of SARS-CoV Urbani [2]: 0.6 | Binding of serum 2 to looped/cyclic peptides of protein M of SARS-CoV Urbani [2]: 0.7 | Binding of serum 6 to linear peptides of protein M of SARS-CoV Urbani [2]: 0.3 | Binding of serum 6 to looped/cyclic peptides of protein M of SARS-CoV Urbani [2]: 0.6 | Binding of serum 37 to linear peptides of protein M of SARS-CoV Urbani [2]: 0.7 | Binding of serum 37 to looped/cyclic peptides of protein M of SARS-CoV Urbani [2]: 0.7 | Binding of serum 62 to linear peptides of protein M of SARS-CoV Urbani [2]: 0.8 | Binding of serum 62 to looped/cyclic peptides of protein M of SARS-CoV Urbani [2]: 0.6 | Binding of serum London to linear peptides of protein M of SARS-CoV Urbani [2]: 0.3 | Binding of serum London to looped/cyclic peptides of protein M of SARS-CoV Urbani [2]: 0.2 | Binding of serum SARS-green to linear peptides of protein M of SARS-CoV Urbani [2]: 0.2 | Binding of serum SARS-green to looped/cyclic peptides of protein M of SARS-CoV Urbani [2]: 0.2 | Binding of serum SARS-yellow to linear peptides of protein M of SARS-CoV Urbani [2]: 0.0 | Binding of serum SARS-yellow to looped/cyclic peptides of protein M of SARS-CoV Urbani [2]: 0.5 | Rabbit serum linear peptides [3]: 0.4 | Rabbit serum looped peptides [3]: 0.4

ICNLLLLFVTIYSHL
Binding of Control Serum Blood-Bank to Looped peptides [1]: 0.5 | Binding of Control serum Blood-bank to linear peptides [1]: 0.5 | Binding of Control serum LUMC to linear peptides [1]: 0.5 | Binding of Control serum LUMC to looped peptides [1]: 0.4 | Binding of serum 1a to linear peptides of protein X1 of SARS-CoV Urbani [2]: 0.6 | Binding of serum 1a to looped/cyclic peptide (PEPSCAN-ELISA) [2]: 0.4 | Binding of serum 1b to linear peptides of protein X1 of SARS-CoV Urbani [2]: 0.6 | Binding of serum 1b to looped/cyclic peptide (PEPSCAN-ELISA) [2]: 0.3 | Binding of serum 2 to linear peptides of protein X1 of SARS-CoV Urbani [2]: 0.5 | Binding of serum 2 to looped/cyclic peptide (PEPSCAN-ELISA) [2]: 0.4 | Binding of serum 6 to linear peptides of protein X1 of SARS-CoV Urbani [2]: 0.4 | Binding of serum 6 to looped/cyclic peptide (PEPSCAN-ELISA) [2]: 0.2 | Binding of serum 37 to linear peptides of protein X1 of SARS-CoV Urbani [2]: 0.6 | Binding of serum 37 to looped/cyclic peptide (PEPSCAN-ELISA) [2]: 0.4 | Binding of serum 62 to linear peptides of protein X1 of SARS-CoV Urbani [2]: 0.5 | Binding of serum 62 to looped/cyclic peptide (PEPSCAN-ELISA) [2]: 0.5 | Binding of serum London to linear peptides of protein X1 of SARS-CoV Urbani [2]: 0.2 | Binding of serum London to looped/cyclic peptide (PEPSCAN-ELISA) [2]: 0.2 | Binding of serum SARS-green to linear peptides of protein X1 of SARS-CoV Urbani [2]: 0.3 | Binding of serum SARS-green to looped/cyclic peptide (PEPSCAN-ELISA) [2]: 0.2 | Binding of serum SARS-yellow to linear peptides of protein X1 of SARS-CoV Urbani [2]: 0.4 | Binding of serum SARS-yellow to looped/cyclic peptide (PEPSCAN-ELISA) [2]: 0.4 | Binding of a rabbit serum to linear peptides [3]: 0.2 | Binding of a rabbit serum to looped peptides [3]: 0.5
